Patent US11420950B2, “Heterocyclicalkyl derivative compounds as selective histone deacetylase inhibitors and pharmaceutical compositions comprising the same” (Chong Kun Dang Pharmaceutical Corp., priority 2015, dated 2022)

Key:
HDAC1 = biological target: T1, HDAC1 (Homo sapiens, UniProt Q13547); assay: HDAC1 enzyme inhibition, HDAC1 fluorimetric drug discovery assay kit; format: biochemical; settings: 100-10000 nM tested, 37° C. 60 minutes, fluorescence; read-out: HDAC1 (μM), ability to inhibit the activity of HDAC enzyme
T1 construct: purchased Enzolifesciences BML-AK511
T1 sequence (Q13547 whole entry): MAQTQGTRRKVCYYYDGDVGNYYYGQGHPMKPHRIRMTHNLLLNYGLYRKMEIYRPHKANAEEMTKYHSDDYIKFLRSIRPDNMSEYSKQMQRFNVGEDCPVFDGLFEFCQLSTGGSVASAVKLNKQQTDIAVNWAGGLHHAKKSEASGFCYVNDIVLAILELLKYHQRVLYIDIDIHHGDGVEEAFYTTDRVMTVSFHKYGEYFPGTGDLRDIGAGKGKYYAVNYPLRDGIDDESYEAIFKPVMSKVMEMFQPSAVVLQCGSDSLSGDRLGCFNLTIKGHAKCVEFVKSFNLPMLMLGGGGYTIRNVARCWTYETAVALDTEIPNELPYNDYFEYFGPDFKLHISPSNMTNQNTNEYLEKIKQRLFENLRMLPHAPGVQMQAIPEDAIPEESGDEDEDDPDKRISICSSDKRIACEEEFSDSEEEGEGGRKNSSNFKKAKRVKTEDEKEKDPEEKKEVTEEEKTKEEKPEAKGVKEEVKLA
Experimental: (§1) Using a HDAC1 fluorimetric drug discovery assay kit (Enzolifesciences: BML-AK511) and a HDAC6 human recombinant (Calbiochem: 382180), the HDAC enzyme inhibitory abilities of test compounds were measured. It was treated with 100, 1000 and 10000 nM concentrations for HDAC1 assay, and 0.1, 1, 10, 100 and 1000 nM concentrations for HDAC6 assay. It was allowed to react at 37° C. for 60 minutes, and then was treated with a developer and allowed to react at 37° C. for 30 minutes, after which the fluorescence intensity (Ex 390 nm; Em 460 nm) was measured using FlexStatin3 (Molecular Device).

HDAC6 human recombinant = biological target: T2, HDAC6 human recombinant (Homo sapiens, UniProt Q9UBN7); assay: HDAC6 enzyme inhibition, fluorimetric assay; format: biochemical; settings: for IC50: 0.1-1000 nM tested, 37° C. 60 minutes, fluorescence, read-out: HDAC6 (μM), ability to inhibit the activity of HDAC enzyme; for selectivity for HDAC1/6 enzymes (HDAC1/HDAC6): ratio of HDAC1 to HDAC6 values
T2 construct: purchased Calbiochem 382180
T2 sequence (Q9UBN7 1-1215): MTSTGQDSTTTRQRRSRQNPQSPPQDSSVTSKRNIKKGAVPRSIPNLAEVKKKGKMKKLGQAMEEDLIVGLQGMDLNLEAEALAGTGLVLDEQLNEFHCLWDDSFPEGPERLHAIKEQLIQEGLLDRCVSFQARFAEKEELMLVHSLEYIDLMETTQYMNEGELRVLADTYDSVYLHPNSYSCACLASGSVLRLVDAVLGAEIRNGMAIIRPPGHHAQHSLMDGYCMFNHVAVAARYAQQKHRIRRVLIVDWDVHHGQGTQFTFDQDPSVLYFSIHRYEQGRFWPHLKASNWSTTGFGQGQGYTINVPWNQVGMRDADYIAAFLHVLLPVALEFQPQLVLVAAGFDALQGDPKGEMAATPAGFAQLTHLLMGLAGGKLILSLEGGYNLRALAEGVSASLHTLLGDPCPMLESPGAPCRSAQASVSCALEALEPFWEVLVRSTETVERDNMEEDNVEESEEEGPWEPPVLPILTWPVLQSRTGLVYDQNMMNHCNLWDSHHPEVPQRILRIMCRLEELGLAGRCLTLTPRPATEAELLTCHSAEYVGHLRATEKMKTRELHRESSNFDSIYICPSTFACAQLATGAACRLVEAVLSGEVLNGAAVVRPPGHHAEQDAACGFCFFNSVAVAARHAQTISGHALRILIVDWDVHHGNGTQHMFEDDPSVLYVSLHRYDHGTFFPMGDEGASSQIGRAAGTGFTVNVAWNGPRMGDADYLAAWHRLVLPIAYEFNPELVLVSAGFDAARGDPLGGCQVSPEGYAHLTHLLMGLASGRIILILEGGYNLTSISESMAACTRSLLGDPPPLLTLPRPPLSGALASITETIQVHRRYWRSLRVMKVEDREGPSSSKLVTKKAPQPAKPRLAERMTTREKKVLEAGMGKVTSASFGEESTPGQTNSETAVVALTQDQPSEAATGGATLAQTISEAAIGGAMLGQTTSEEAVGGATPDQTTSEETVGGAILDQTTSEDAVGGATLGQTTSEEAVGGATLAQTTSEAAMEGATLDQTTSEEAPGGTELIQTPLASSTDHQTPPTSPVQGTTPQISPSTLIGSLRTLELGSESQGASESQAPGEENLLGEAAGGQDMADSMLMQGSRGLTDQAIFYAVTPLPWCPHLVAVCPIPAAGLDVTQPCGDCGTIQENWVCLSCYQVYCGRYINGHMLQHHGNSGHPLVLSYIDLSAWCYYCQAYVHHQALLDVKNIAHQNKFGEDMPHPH
Experimental: as §1

[1] = test system: adjuvant-induced arthritis models; assay: Adjuvant-induced arthritis model, clinical score; format: in vivo; settings: Lewis rat, vehicle 9-11
Experimental: […] of complete Freund's adjuvant (Chondrex) was injected intradermally into the tail of each Lewis rat to induce animal models. From one day before induction, the rats were divided into groups based on body weight, and the test compound was administered orally to the rats at various doses once a day, followed by evaluation.
Clinical score and body weight were measured twice a week from the day of first administration of the test compound. The clinical score was recorded as 0-4 points, and the total clinical score was evaluated after observing the foot of each rat (0: normal; and 16: the most severe edema).
The medicinal effect of the test compound in the arthritis models was evaluated based on the degree of joint edema, and a higher clinical score indicates a more severe degree of edema.

IC50 (HDAC1)	IC50 (HDAC6 human recombinant)	selectivity for HDAC1/6 enzymes (HDAC1/HDAC6) (HDAC6 human recombinant)	Compound	clinical score (joint edema, 0: normal; 16: the most severe edema) ([1]; 1 mg/kg orally once a day)	clinical score (joint edema, 0: normal; 16: the most severe edema) ([1]; 10 mg/kg orally once a day)	clinical score (joint edema, 0: normal; 16: the most severe edema) ([1]; 50 mg/kg orally once a day)
3.84 µM	0.004 µM	960 fold	O=C(CCCCCCNC(=O)N1CCN(C(c2ccccc2)c2ccccc2)CC1)NO [Compound 1102, 4-benzhydryl-N-(7-(hydroxyamino)-7-oxoheptyl)piperazine-1-carboxamide]	6-8	4-6	1-3
4.09 µM	0.024 µM	170 fold	O=C(CCCCCCNC(=O)N1CCC(C(O)(c2ccccc2)c2ccccc2)CC1)NO [Compound 1124, N-(7-(hydroxyamino)-7-oxoheptyl)-4-(hydroxydiphenylmethyl)piperidine-1-carboxamide]			
1.68 µM	0.014 µM		C[C@@H]1CN(C(c2ccccc2)c2ccccc2)C[C@H](C)N1C(=O)NCCCCCCC(=O)NO [Compound 1188, (2S,6R)-4-benzhydryl-N-(7-(hydroxyamino)-7-oxoheptyl)-2,6-dimethylpiperazine-1-carboxyamide]			
0.84 µM	0.025 µM		C[C@@H]1CN(C(c2ccccc2)c2ccccc2)CCN1C(=O)NCCCCCCC(=O)NO [Compound 1189, (R)-4-benzhydryl-N-(7-(hydroxyamino)-7-oxoheptyl)-2-methylpiperazine-1-carboxamide]			
1.34 µM	0.065 µM		C[C@H]1CN(C(c2ccccc2)c2ccccc2)CCN1C(=O)NCCCCCCC(=O)NO [Compound 1190, (S)-4-benzhydryl-N-(7-(hydroxyamino)-7-oxoheptyl)-2-methylpiperazine-1-carboxamide]			
1.16 µM	0.006 µM	193 fold	O=C(CCCCCCNC(=O)C1CCN(C(c2ccccc2)c2ccccc2)CC1)NO [Compound 1209, 1-benzhydryl-N-(7-(hydroxyamino)-7-oxoheptyl)piperidine-4-carboxamide]			
1.19 µM	0.07 µM		O=C(CCCCCCNS(=O)(=O)N1CCC(C(O)(c2ccccc2)c2ccccc2)CC1)NO [Compound 1210, N-hydroxy-7-((4-(hydroxydiphenylmethyl)piperidine)-1-sulfonamido)heptanamide]			
0.704 µM	0.044 µM		CN(CCCCCCC(=O)NO)C(=O)N1CCN(C(c2ccccc2)c2ccccc2)CC1 [Compound 1213, 4-benzhydryl-N-(7-(hydroxyamino)-7-oxoheptyl)-N-methylpiperazine-1-carboxamide]			
1.88 µM	0.079 µM		O=C(CCCCCCNC(=O)N1CCC(N(c2ccccc2)c2ccccc2)CC1)NO [Compound 1221, 4-(diphenylamino)-N-(7-(hydroxyamino)-7-oxoheptyl)piperidine-1-carboxamide]			
0.71 µM	0.085 µM		O=C(CCCCCCNC(=O)N1CCN(C(c2ccccn2)c2ccccn2)CC1)NO [Compound 1222]			
1.16 µM	0.073 µM		O=C(CCCCCCNC(=O)N1CCN(C(c2ccc(F)cc2)c2ccc(F)cc2)CC1)NO [Compound 1223]			
3.96 µM	0.087 µM		O=C(CCCCCCNC(=O)N1CCN(C(c2ccc(Cl)cc2)c2ccc(Cl)cc2)CC1)NO [Compound 1224]			
0.41 µM	0.07 µM		O=C(CCCCCCCNC(=O)N1CCN(C(c2ccccc2)c2ccccc2)CC1)NO [Compound 1240, 4-benzhydryl-N-(8-(hydroxyamino)-8-oxoethyl)piperazine-1-carboxamide]			
0.72 µM	0.025 µM		CC(c1ccccc1)N1CCN(C(=O)NCCCCCCC(=O)NO)CC1 (stereo not drawn) [Compound 1241, N-(7-(hydroxyamino)-7-oxoheptyl)-4-(1-phenylethyl)piperazine-1-carboxamide]			
0.54 µM	0.017 µM		CC(c1ccccc1)N1CCC(C(=O)NCCCCCCC(=O)NO)CC1 (stereo not drawn) [Compound 1243, N-(7-(hydroxyamino)-7-oxoheptyl)-1-(1-phenylethyl)piperidine-4-carboxamide]			
0.08 µM	0.038 µM		CN(CCCCCCC(=O)NO)C(=O)C1CCN(C(c2ccccc2)c2ccccc2)CC1 [Compound 1256, 1-benzhydryl-N-(7-(hydroxyamino)-7-oxoheptyl)-N-methylpiperidine-4-carboxamide]			
0.159 µM	0.063 µM		O=C(CCCCCNC(=O)N1CCN(C(c2ccccc2)c2ccccc2)CC1)NO [Compound 1257, 4-benzhydryl-N-(6-(hydroxyamino)-6-oxohexyl)piperazine-1-carboxamide]			
0.236 µM	0.456 µM		O=C(CCCCCNC(=O)C1CCN(C(c2ccccc2)c2ccccc2)CC1)NO [Compound 1316, 1-benzhydryl-N-(6-(hydroxyamino)-6-oxohexyl)piperidine-4-carboxamide]			
0.023 µM	0.336 µM		O=C(CCCCCCCNC(=O)C1CCN(C(c2ccccc2)c2ccccc2)CC1)NO [Compound 1317]			
0.466 µM	0.019 µM		O=C(CCCCCCNC(=O)N1CCN(C(c2ccccc2F)c2ccccc2F)CC1)NO [Compound 1647, 4-(bis(2-fluorophenyl)methyl)-N-(7-(hydroxyamino)-7-oxoheptyl)piperazine-1-carboxamide]			
0.729 µM	0.029 µM		O=C(CCCCCCNC(=O)N1CCN(C(c2cccc(F)c2)c2cccc(F)c2)CC1)NO [Compound 1648]			
0.463 µM	0.033 µM		O=C(CCCCCCNC(=O)N1CCC(C(F)(c2ccccc2)c2ccccc2)CC1)NO [Compound 1649, 4-(fluorodiphenylmethyl)-N-(7-(hydroxyamino)-7-oxoheptyl)piperidine-1-carboxamide]			
1.73 µM	0.116 µM		O=C(CCCCCCNC(=O)N1CCC(N(c2ccccc2)c2cccc(F)c2)CC1)NO [Compound 1719, 4-((3-fluorophenyl)(phenyl)amino)-N-(7-(hydroxyamino)-7-oxoheptyl)piperidine-1-carboxamide]			
0.886 µM	0.094 µM		O=C(CCCCCCNC(=O)N1CCC(N(c2ccccc2)c2ccc(F)cc2)CC1)NO [Compound 1734, 4-((4-fluorophenyl)(phenyl)amino)-N-(7-(hydroxyamino)-7-oxoheptyl)piperidine-1-carboxamide]			
0.023 µM	0.201 µM		O=C(CCCCCNC(=O)N1CC2(CCN(C(c3ccccc3)c3ccccc3)CC2)C1)NO [Compound 1763, 7-benzhydryl-N-(6-(hydroxyamino)-6-oxohexyl)-2,7-diazaspiro[3.5]nonane-2-carboxamide]			
0.236 µM	0.04 µM		O=C(CCCCCCNC(=O)N1CC2(CCN(C(c3ccccc3)c3ccccc3)CC2)C1)NO [Compound 1764, 7-benzhydryl-N-(7-(hydroxyamino)-7-oxoheptyl)-2,7-diazaspiro[3.5]nonane-2-carboxamide]			

Compound	IC50 (HDAC1)	IC50 (HDAC6 human recombinant)	selectivity for HDAC1/6 enzymes (HDAC1/HDAC6) (HDAC6 human recombinant)	clinical score (joint edema, 0: normal; 16: the most severe edema) ([1]; 1 mg/kg orally once a day)	clinical score (joint edema, 0: normal; 16: the most severe edema) ([1]; 10 mg/kg orally once a day)	clinical score (joint edema, 0: normal; 16: the most severe edema) ([1]; 50 mg/kg orally once a day)
N-(7-(hydroxyamino)-7-oxoheptyl)-4-(phenyl(4-(trifluoromethyl)phenyl)amino)piperidine-1-carboxamie [Compound 1726]	3.7 µM	0.228 µM				
